Common to all, as to assay: Glasshouse assay for herbicidal activity (pre- and post-emergence), percentage phytotoxicity
Format in all cases: in vivo

Assay [1] deals with Echinochloa crus-galli (ECHCG). The settings on record: Echinochloa crus-galli. Summed up: (§1)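 Percent injury was estimated by eye on a scale where 0% means no damage and 100% complete damage. Ratings came 15 DAA post-emergence and 20 DAA pre-emergence, with plants held under 16 h light and 65% humidity at 24/18 °C or 20/16 °C day/night.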
Assay [2] has as its system Avena fatua (AVEFA). As to conditions: Avena fatua. The method, boiled down:
as §1

Assay [3] concerns Lolium perenne (LOLPE). As to conditions: Lolium perenne. Summed up: as §1
The test system of assay [4] is Alopecurus myosuroides (ALOMY). As to conditions: Alopecurus myosuroides. The method, boiled down:
as §1

[5] abbreviates: post-emergence, 360 h, Rate 250 g/ha, post-emergence, visual assessment 15 DAA, 100%=total damage, 0%=no damage, read-out: Post-emergence herbicidal activity (percentage phytotoxicity) ECHCG POST.
The mark [6] stands for this setting: pre-emergence, 480 h, Rate 250 g/ha, pre-emergence, visual assessment 20 DAA, 100%=total damage, 0%=no damage, read-out: Pre-emergence herbicidal activity (percentage phytotoxicity) ECHCG PRE.
Setting [7] is: post-emergence, 360 h, Rate 250 g/ha, post-emergence, visual assessment 15 DAA, 100%=total damage, 0%=no damage, read-out: Post-emergence herbicidal activity (percentage phytotoxicity) AVEFA POST.
The mark [8] stands for this setting: pre-emergence, 480 h, Rate 250 g/ha, pre-emergence, visual assessment 20 DAA, 100%=total damage, 0%=no damage, read-out: Pre-emergence herbicidal activity (percentage phytotoxicity) AVEFA PRE.
Where [9] appears, read: post-emergence, 360 h, Rate 250 g/ha, post-emergence, visual assessment 15 DAA, 100%=total damage, 0%=no damage, read-out: Post-emergence herbicidal activity (percentage phytotoxicity) LOLPE POST.
Where [10] appears, read: pre-emergence, 480 h, Rate 250 g/ha, pre-emergence, visual assessment 20 DAA, 100%=total damage, 0%=no damage, read-out: Pre-emergence herbicidal activity (percentage phytotoxicity) LOLPE PRE.
[11] abbreviates: post-emergence, 360 h, Rate 250 g/ha, post-emergence, visual assessment 15 DAA, 100%=total damage, 0%=no damage, read-out: Post-emergence herbicidal activity (percentage phytotoxicity) ALOMY POST.
[12] abbreviates: pre-emergence, 480 h, Rate 250 g/ha, pre-emergence, visual assessment 20 DAA, 100%=total damage, 0%=no damage, read-out: Pre-emergence herbicidal activity (percentage phytotoxicity) ALOMY PRE.
Where [13] appears, read: post-emergence, 360 h, 250 g/ha, post-emergence, 15 DAA, visual assessment (100%=total damage, 0%=no damage), read-out: Post-emergence herbicidal activity (percentage phytotoxicity) ECHCG POST.
Setting [14] is: pre-emergence, 480 h, 250 g/ha, pre-emergence, 20 DAA, visual assessment (100%=total damage, 0%=no damage), read-out: Pre-emergence herbicidal activity (percentage phytotoxicity) ECHCG PRE.
The mark [15] stands for this setting: post-emergence, 360 h, 250 g/ha, post-emergence, 15 DAA, visual assessment (100%=total damage, 0%=no damage), read-out: Post-emergence herbicidal activity (percentage phytotoxicity) AVEFA POST.
[16] abbreviates: pre-emergence, 480 h, 250 g/ha, pre-emergence, 20 DAA, visual assessment (100%=total damage, 0%=no damage), read-out: Pre-emergence herbicidal activity (percentage phytotoxicity) AVEFA PRE.
The mark [17] stands for this setting: post-emergence, 360 h, 250 g/ha, post-emergence, 15 DAA, visual assessment (100%=total damage, 0%=no damage), read-out: Post-emergence herbicidal activity (percentage phytotoxicity) LOLPE POST.
[18] abbreviates: pre-emergence, 480 h, 250 g/ha, pre-emergence, 20 DAA, visual assessment (100%=total damage, 0%=no damage), read-out: Pre-emergence herbicidal activity (percentage phytotoxicity) LOLPE PRE.
[19] abbreviates: post-emergence, 360 h, 250 g/ha, post-emergence, 15 DAA, visual assessment (100%=total damage, 0%=no damage), read-out: Post-emergence herbicidal activity (percentage phytotoxicity) ALOMY POST.
Where [20] appears, read: pre-emergence, 480 h, 250 g/ha, pre-emergence, 20 DAA, visual assessment (100%=total damage, 0%=no damage), read-out: Pre-emergence herbicidal activity (percentage phytotoxicity) ALOMY PRE.
Where [21] appears, read: post-emergence, 360 h, POST-emergence, rate 250 g/ha, visual score 15 DAA (100%=total damage, 0%=no damage), read-out: Post-emergence herbicidal activity (percentage phytotoxicity) ECHCG POST.
Setting [22] is: pre-emergence, 480 h, PRE-emergence, rate 250 g/ha, visual score 20 DAA (100%=total damage, 0%=no damage), read-out: Pre-emergence herbicidal activity (percentage phytotoxicity) ECHCG PRE.
The mark [23] stands for this setting: post-emergence, 360 h, POST-emergence, rate 250 g/ha, visual score 15 DAA (100%=total damage, 0%=no damage), read-out: Post-emergence herbicidal activity (percentage phytotoxicity) AVEFA POST.
Setting [24] is: pre-emergence, 480 h, PRE-emergence, rate 250 g/ha, visual score 20 DAA (100%=total damage, 0%=no damage), read-out: Pre-emergence herbicidal activity (percentage phytotoxicity) AVEFA PRE.
The mark [25] stands for this setting: post-emergence, 360 h, POST-emergence, rate 250 g/ha, visual score 15 DAA (100%=total damage, 0%=no damage), read-out: Post-emergence herbicidal activity (percentage phytotoxicity) LOLPE POST.
[26] abbreviates: pre-emergence, 480 h, PRE-emergence, rate 250 g/ha, visual score 20 DAA (100%=total damage, 0%=no damage), read-out: Pre-emergence herbicidal activity (percentage phytotoxicity) LOLPE PRE.
[27] abbreviates: post-emergence, 360 h, POST-emergence, rate 250 g/ha, visual score 15 DAA (100%=total damage, 0%=no damage), read-out: Post-emergence herbicidal activity (percentage phytotoxicity) ALOMY POST.
The mark [28] stands for this setting: pre-emergence, 480 h, PRE-emergence, rate 250 g/ha, visual score 20 DAA (100%=total damage, 0%=no damage), read-out: Pre-emergence herbicidal activity (percentage phytotoxicity) ALOMY PRE.
Where [29] appears, read: post-emergence, 360 h, Rate 250 g/ha, post-emergence, assessed visually 15 DAA, 100%=total damage, 0%=no damage, read-out: Post-emergence herbicidal activity (percentage phytotoxicity) ECHCG POST.
[30] abbreviates: pre-emergence, 480 h, Rate 250 g/ha, pre-emergence, assessed visually 20 DAA, 100%=total damage, 0%=no damage, read-out: Pre-emergence herbicidal activity (percentage phytotoxicity) ECHCG PRE.
Where [31] appears, read: post-emergence, 360 h, Rate 250 g/ha, post-emergence, assessed visually 15 DAA, 100%=total damage, 0%=no damage, read-out: Post-emergence herbicidal activity (percentage phytotoxicity) AVEFA POST.
Setting [32] is: pre-emergence, 480 h, Rate 250 g/ha, pre-emergence, assessed visually 20 DAA, 100%=total damage, 0%=no damage, read-out: Pre-emergence herbicidal activity (percentage phytotoxicity) AVEFA PRE.
[33] abbreviates: post-emergence, 360 h, Rate 250 g/ha, post-emergence, assessed visually 15 DAA, 100%=total damage, 0%=no damage, read-out: Post-emergence herbicidal activity (percentage phytotoxicity) LOLPE POST.
Where [34] appears, read: pre-emergence, 480 h, Rate 250 g/ha, pre-emergence, assessed visually 20 DAA, 100%=total damage, 0%=no damage, read-out: Pre-emergence herbicidal activity (percentage phytotoxicity) LOLPE PRE.
Where [35] appears, read: post-emergence, 360 h, Rate 250 g/ha, post-emergence, assessed visually 15 DAA, 100%=total damage, 0%=no damage, read-out: Post-emergence herbicidal activity (percentage phytotoxicity) ALOMY POST.
Setting [36] is: pre-emergence, 480 h, Rate 250 g/ha, pre-emergence, assessed visually 20 DAA, 100%=total damage, 0%=no damage, read-out: Pre-emergence herbicidal activity (percentage phytotoxicity) ALOMY PRE.

Where two headings read alike, the source gives them in different places.

For `CC#Cc1cc(C)c(C2C(=O)CC(CC(=O)NC(C)(C)C#N)C2=O)c(C)c1` (stereo not drawn) [Compound B379], the pest or weed control at 250 g/ha in assay [1] (setting [5]) was found to be 90%; in assay [1] (setting [6]), 70%; in assay [2] (setting [7]), 90%; in assay [2] (setting [8]), 70%; in assay [3] (setting [9]), 60%; in assay [3] (setting [10]), 70%. Further, the pest or weed control at 250 g/ha in assay [4] (setting [11]) and in assay [4] (setting [12]) was 90% in each case.

`Cc1cc(-c2ncc(F)cn2)cc(C)c1C1C(=O)CC(CC(=O)NC2CCCC2)C1=O` (stereo not drawn) [Compound B114]: the pest or weed control at 250 g/ha in assay [1] (setting [13]) was 100%; in assay [1] (setting [14]) it was 100%; in assay [2] (setting [15]) it was 90%; in assay [2] (setting [16]), 60%; in assay [3] (setting [17]) it was 90%; in assay [3] (setting [18]), 90%. For the same molecule, the pest or weed control at 250 g/ha in assay [4] (setting [19]) and in assay [4] (setting [20]) was 90% each time.

As to `C=CCNC(=O)CC1CC(=O)C(c2c(C)cc(-c3ncc(Cl)cn3)cc2C)C1=O` (stereo not drawn) [Compound B350], the pest or weed control at 250 g/ha stood at 100% in assay [1] (setting [5]); 100% in assay [1] (setting [6]); 100% in assay [2] (setting [7]); 90% in assay [2] (setting [8]); 100% in assay [3] (setting [9]); 100% in assay [3] (setting [10]). Besides, the pest or weed control at 250 g/ha in assay [4] (setting [11]) and in assay [4] (setting [12]) was 100% in each case.

Consider `Cc1cc(-n2cc(Cl)cn2)cc(C)c1C1C(=O)CC(CC(=O)NCc2cccc(Cl)c2)C1=O` (stereo not drawn) [Compound B262], for which the pest or weed control at 250 g/ha in assay [1] (setting [21]) was 100%; in assay [1] (setting [22]) it was 80%; in assay [2] (setting [23]), 90%; in assay [2] (setting [24]) it was 40%; in assay [3] (setting [25]) it was 70%; in assay [3] (setting [26]), 60%. Further, the pest or weed control at 250 g/ha in assay [4] (setting [27]) came out at 70%; in assay [4] (setting [28]) it was 60%.

Take `Cc1cc(C)c(C2C(=O)CC(CC(=O)NCc3cccc(C(F)(F)F)c3)C2=O)c(C)c1` (stereo not drawn) [Compound A89]: the pest or weed control at 250 g/ha in assay [1] (setting [29]) was determined as 100%; in assay [1] (setting [30]), 100%; in assay [2] (setting [31]), 90%; in assay [2] (setting [32]) it was 60%; in assay [3] (setting [33]), 100%; in assay [3] (setting [34]), 90%. The pest or weed control at 250 g/ha in assay [4] (setting [35]) and in assay [4] (setting [36]) was 90% in each case.

Consider `Cc1cc(-c2ncc(Cl)cc2F)cc(C)c1C1C(=O)CC(CC(=O)NCc2ccc(C(F)(F)F)nc2)C1=O` (stereo not drawn) [Compound A115], for which the pest or weed control at 250 g/ha in assay [1] (setting [29]) came to 100%; in assay [1] (setting [30]), 90%; in assay [2] (setting [31]), 100%; in assay [2] (setting [32]), 90%; in assay [3] (setting [33]) it was 100%; in assay [3] (setting [34]), 90%. The figures for the pest or weed control at 250 g/ha in assay [4] (setting [35]) and in assay [4] (setting [36]) were 100% and 90%, respectively.

As to `Cc1cc(-c2cc(Cl)ccn2)cc(C)c1C1C(=O)CC(CC(=O)NCc2cccc(C(F)(F)F)c2)C1=O` (stereo not drawn) [Compound A154], the pest or weed control at 250 g/ha was 100% in assay [1] (setting [29]); 80% in assay [1] (setting [30]); 90% in assay [2] (setting [31]); 60% in assay [2] (setting [32]); 70% in assay [3] (setting [33]); 80% in assay [3] (setting [34]). The pest or weed control at 250 g/ha in assay [4] (setting [35]) came out at 80%; in assay [4] (setting [36]) it was 50%.

Consider `Cc1cc(C)c(C2C(=O)CC(CC(=O)NCc3ccccc3C(F)(F)F)C2=O)c(C)c1` (stereo not drawn) [Compound B19], for which the pest or weed control at 250 g/ha in assay [1] (setting [13]) turned out to be 70%; in assay [1] (setting [14]), 90%; in assay [2] (setting [15]), 50%; in assay [2] (setting [16]) it was 20%; in assay [3] (setting [17]), 70%; in assay [3] (setting [18]), 80%. Moreover, the figures for the pest or weed control at 250 g/ha in assay [4] (setting [19]) and in assay [4] (setting [20]) were 50% and 10%, respectively.

For `Cc1cc(-n2cc(Cl)cn2)cc(C)c1C1C(=O)CC(CC(=O)NCc2ccc(C#N)cc2)C1=O` (stereo not drawn) [Compound B225], the pest or weed control at 250 g/ha in assay [1] (setting [21]) was 70%; in assay [1] (setting [22]), 0%; in assay [2] (setting [23]) it was 70%; in assay [2] (setting [24]), 0%; in assay [3] (setting [25]), 60%; in assay [3] (setting [26]), 0%. Moreover, the pest or weed control at 250 g/ha in assay [4] (setting [27]) stood at 60%; in assay [4] (setting [28]), 0%.

The record behind these values is US10206394B2, “Herbicidal compounds” (Syngenta Participations AG, priority 2014, dated 2019).
